This series is described as follows: recombinant barcode read abundance after kanamycin selection (control-corrected) (log10(CPM+1)); higher = more efficient recombination; sequences stand for … in AGTGCAGAGAAAATCGGCCAGTTTTCTCTGCCTGCAGTCCGCATGCCGT…AGATTTATGCAGCGGACTGCCTTTCTCCCAAAGTGATAAACCGGACAGTATCATGGACCGGTTTTCCCGGTAATCCGTATTTGCAAGGTTGGTTTCACT; site = the 11-nt target. The procedure, abridged: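 Pooled oligos, each joining a target to an IS621 bridge RNA target-binding loop, were cloned and co-electroporated with a donor plasmid into E. coli. Selective plates carried chloramphenicol/ampicillin/kanamycin and 0.1 mM IPTG, while chloramphenicol/ampicillin LB agar served as control, with two replicates of each. Recombination efficiency rests on averaged, control-corrected counts per million of barcodes at recombinant junctions, shown as log10(CPM+1).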
Take “AGGTCCTCTTGGGTTCTAACCTGTTGCTA (site AGGTCCTCTTA)”: the “recombinant barcode read abundance (log10)” value was 1.96.
The result for “AGGTCCTCTTGGGTTCTAACCTGTTGCTA (site TGATCCTCTTA)” reads 0.0783; that for “AGGTGCTCTTGGGTTCTAACCTGTTGCCT (site AAGTGCTCTAG)”, 0.0629; that for “AGGTGCTCTTGGGTTCTAACCTGTTGCCT (site ACGTGCTCTAG)”, 0.179.
The result for “AGGTGCTCTTGGGTTCTAACCTGTTGCCT (site AGGTGCTCTAG)” reads 1.6; that for “AGGTGCTCTTGGGTTCTAACCTGTTGCCT (site ATGTGCTCTAG)”, 0.107.
For “AGGTGTCCTTGGGTTCTAACCTGTTGCTT (site AGGTGTCCTAA)”, the “recombinant barcode read abundance (log10)” value is 1.4.
For the sequence “AGGTGTCCTTGGGTTCTAACCTGTTGCTT (site CGGTGTCCTAA)”, the “recombinant barcode read abundance (log10)” value was 0.0102.
The result for “AGGTTAGCTTGGGTTCTAACCTGTTGCTA (site AGGTTAGCTTA)” reads 0.0546; that for “AGGTTAGCTTGGGTTCTAACCTGTTGCTA (site GCAAGTACTCT)”, 0.538.
As for “AGTAACCCTTGGGTTCTAACCTGTTGCCT (site AATAACCCTAG)”, the “recombinant barcode read abundance (log10)” value turned out to be 0.0627.
The figure for “AGTAACCCTTGGGTTCTAACCTGTTGCCT (site ACTAACCCTAG)” is 0.158; for “AGTAACCCTTGGGTTCTAACCTGTTGCCT (site AGTAACCCTAG)” it is 1.22.
Turning to “AGTAACCCTTGGGTTCTAACCTGTTGCCT (site ATTAACCCTAG)”, the “recombinant barcode read abundance (log10)” value turned out to be 0.137.
The figure for “AGTAAGACTTGGGTTCTAACCTGTTGCAT (site AGTAAGACTAA)” is 0.197.
The result for “AGTAAGACTTGGGTTCTAACCTGTTGCAT (site AGTAAGACTAC)” reads 0.0256.
Consider “AGTAAGACTTGGGTTCTAACCTGTTGCAT (site AGTAAGACTAG)”, for which the “recombinant barcode read abundance (log10)” value turned out to be 0.423.
The result for “AGTAAGACTTGGGTTCTAACCTGTTGCAT (site AGTAAGACTAT)” reads 1.41; that for “AGTAAGCCTTGGGTTCTAACCTGTTGCAG (site ACTAAGCCTCC)”, 0.133.
The figure for “AGTAAGCCTTGGGTTCTAACCTGTTGCAG (site AGTAAGCCTCT)” is 1.12.
The figure for “AGTAAGCCTTGGGTTCTAACCTGTTGCCT (site AGTAAGCCTAG)” is 0.864; for “AGTAAGCCTTGGGTTCTAACCTGTTGCCT (site AGTCAGCCTAG)” it is 0.243; for “AGTAAGCCTTGGGTTCTAACCTGTTGCCT (site AGTGAGCCTAG)” it is 0.187.
In the case of “AGTAAGCCTTGGGTTCTAACCTGTTGCCT (site AGTTAGCCTAG)”, the “recombinant barcode read abundance (log10)” value came to 0.173.
The figure for “AGTACGTCTTGGGTTCTAACCTGTTGCTT (site AGTACGTCTAA)” is 0.201.
Turning to “AGTACGTCTTGGGTTCTAACCTGTTGCTT (site GTTACGTCTAA)”, the “recombinant barcode read abundance (log10)” value amounted to 0.0179.
The result for “AGTACTCCTTGGGTTCTAACCTGTTGCTG (site AATACTACTCA)” reads 0.085; that for “AGTACTCCTTGGGTTCTAACCTGTTGCTG (site AGTACTCCTCA)”, 0.172.
The result for “AGTATAACTTGGGTTCTAACCTGTTGCTG (site AGTATAACTCA)” reads 0.24; that for “AGTATAACTTGGGTTCTAACCTGTTGCTG (site GTGTACCCTGT)”, 0.178.
The result for “AGTCATTCTTGGGTTCTAACCTGTTGCAT (site AGTCAGTCTAC)” reads 0.166; that for “AGTCATTCTTGGGTTCTAACCTGTTGCAT (site AGTCATTCTAT)”, 0.45; that for “AGTCCCGCTTGGGTTCTAACCTGTTGCCA (site AGTCCCGCTTG)”, 1.67.
Take “AGTCCCGCTTGGGTTCTAACCTGTTGCCA (site GCATATACTAC)”: the “recombinant barcode read abundance (log10)” value was found to be 0.212.
The result for “AGTCCTACTTGGGTTCTAACCTGTTGCAG (site AGGCTTACTCT)” reads 0.234.
The result for “AGTCCTACTTGGGTTCTAACCTGTTGCAG (site AGTCCTACTCT)” reads 0.794; that for “AGTCGGACTTGGGTTCTAACCTGTTGCAC (site AGTCGGACTGT)”, 0.846; that for “AGTCGGACTTGGGTTCTAACCTGTTGCAC (site CACGATCCTAA)”, 0.0668.
The figure for “AGTCTCGCTTGGGTTCTAACCTGTTGCGG (site AGTATCGCTCC)” is 0.0167; for “AGTCTCGCTTGGGTTCTAACCTGTTGCGG (site AGTCTCGCTCC)” it is 0.345; for “AGTCTCGCTTGGGTTCTAACCTGTTGCGG (site AGTGTCGCTCC)” it is 0.0171.
For the sequence “AGTCTCGCTTGGGTTCTAACCTGTTGCGG (site AGTTTCGCTCC)”, the “recombinant barcode read abundance (log10)” value amounted to 0.0153.
For the sequence “AGTCTCTCTTGGGTTCTAACCTGTTGCCT (site AGTCTCTCTAG)”, the “recombinant barcode read abundance (log10)” value was found to be 0.688.
The result for “AGTCTCTCTTGGGTTCTAACCTGTTGCCT (site AGTGACTCTAG)” reads 0.0251.
The result for “AGTCTCTCTTGGGTTCTAACCTGTTGCTA (site AGTCTCTCTCG)” reads 0.128; that for “AGTCTCTCTTGGGTTCTAACCTGTTGCTA (site AGTCTCTCTTA)”, 1.21.
The figure for “AGTGAAGCTTGGGTTCTAACCTGTTGCAC (site AGTGAAGCTGT)” is 2.33; for “AGTGAAGCTTGGGTTCTAACCTGTTGCAC (site CACTTCCCTTC)” it is 0.298; for “AGTGAGCCTTGGGTTCTAACCTGTTGCCT (site AGTAAGCCTAG)” it is 0.344.
In the case of “AGTGAGCCTTGGGTTCTAACCTGTTGCCT (site AGTCAGCCTAG)”, the “recombinant barcode read abundance (log10)” value stood at 0.0584.
The figure for “AGTGAGCCTTGGGTTCTAACCTGTTGCCT (site AGTGAGCCTAG)” is 1.26; for “AGTGAGCCTTGGGTTCTAACCTGTTGCCT (site AGTTAGCCTAG)” it is 0.0633.
The result for “AGTGGACCTTGGGTTCTAACCTGTTGCCC (site AGTGGACCTGG)” reads 1.86; that for “AGTGGACCTTGGGTTCTAACCTGTTGCCC (site TCCCATACTAT)”, 0.0634.
For “AGTGGAGCTTGGGTTCTAACCTGTTGCCT (site AGGGGATCTAG)”, the “recombinant barcode read abundance (log10)” value amounted to 0.0601.
The figure for “AGTGGAGCTTGGGTTCTAACCTGTTGCCT (site AGTGGAGCTAG)” is 2.27.
In the case of “AGTGGGACTTGGGTTCTAACCTGTTGCCA (site AGTGGGACTTG)”, the “recombinant barcode read abundance (log10)” value is 1.56.
The result for “AGTGGGACTTGGGTTCTAACCTGTTGCCA (site GGTGAGACTTG)” reads 0.0594; that for “AGTTAGTCTTGGGTTCTAACCTGTTGCCA (site AGTCAGTCTTG)”, 0.0961.
As to “AGTTAGTCTTGGGTTCTAACCTGTTGCCA (site AGTTAGTCTTG)”, the “recombinant barcode read abundance (log10)” value was found to be 0.0604.
The result for “AGTTCGACTTGGGTTCTAACCTGTTGCCT (site AATTCGACTAG)” reads 0.0143; that for “AGTTCGACTTGGGTTCTAACCTGTTGCCT (site ACTTCGACTAG)”, 0.0163; that for “AGTTCGACTTGGGTTCTAACCTGTTGCCT (site AGTTCGACTAG)”, 0.429.
The figure for “AGTTCGACTTGGGTTCTAACCTGTTGCCT (site ATTTCGACTAG)” is 0.234; for “AGTTCGCCTTGGGTTCTAACCTGTTGCTA (site AGTGCGCCTTA)” it is 0.317.
Regarding “AGTTCGCCTTGGGTTCTAACCTGTTGCTA (site AGTTCGCCTTA)”, the “recombinant barcode read abundance (log10)” value is 0.012.
The figure for “AGTTGGCCTTGGGTTCTAACCTGTTGCAG (site AGTTGGCCTCT)” is 0.39.
The figure for “AGTTGGCCTTGGGTTCTAACCTGTTGCAG (site CTAACTACTAA)” is 0.313.
The figure for “AGTTGGGCTTGGGTTCTAACCTGTTGCTG (site AGCTGGGCTCC)” is 0.154; for “AGTTGGGCTTGGGTTCTAACCTGTTGCTG (site AGTTGGGCTCA)” it is 1.02; for “ATAAAACCTTGGGTTCTAACCTGTTGCCT (site ATAAAACCTAG)” it is 1.23.
Consider “ATAAAACCTTGGGTTCTAACCTGTTGCCT (site CTAAAACCTAG)”, for which the “recombinant barcode read abundance (log10)” value came out at 0.64.
The result for “ATAAAACCTTGGGTTCTAACCTGTTGCCT (site GTAAAACCTAG)” reads 0.114.
With “ATAAAACCTTGGGTTCTAACCTGTTGCCT (site TTAAAACCTAG)”, the “recombinant barcode read abundance (log10)” value amounted to 0.244.
“ATAAAGCCTTGGGTTCTAACCTGTTGCCT (site ATAAAGCCTAG)”: the “recombinant barcode read abundance (log10)” value came to 2.05.
The figure for “ATAAAGCCTTGGGTTCTAACCTGTTGCCT (site ATAAGGCCTAG)” is 0.0177; for “ATAAATCCTTGGGTTCTAACCTGTTGCCT (site ATAAATCCTAG)” it is 0.632.

Source of the values: the supplement of paper PMC11208160.
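Further: IS621 recombinase and bridge RNA in Escherichia coli cells.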
